The values below come from paper PMC11093748, “De novo identification of CD4^+ T cell epitopes” (Nature Methods, 2024).

For assay [1], the system named is pooled TCR1, TCR2, TCR3, TCR5, TCR7, TCR24, TCR37 with one TCR left out. The assay is described as follows: Multiplexed TCR/library dropout screen, individual ES of each leave-one-out pool. Format: cell-based, mouse. To be noted: for INDIVIDUAL ES LOO_TCR1: leave-one-out pool without TCR1; for INDIVIDUAL ES LOO_TCR2: leave-one-out pool without TCR2; for INDIVIDUAL ES LOO_TCR3: leave-one-out pool without TCR3; for INDIVIDUAL ES LOO_TCR5: leave-one-out pool without TCR5; for INDIVIDUAL ES LOO_TCR7: leave-one-out pool without TCR7; for INDIVIDUAL ES LOO_TCR24: leave-one-out pool without TCR24; for INDIVIDUAL ES LOO_TCR37: leave-one-out pool without TCR37. An excerpt: Supplement 41592_2024_2255_MOESM7_ESM.xlsx, sheet "leave-one-out analysis" | column: LOO_TCR1; LOO_TCR2; LOO_TCR3; LOO_TCR5; LOO_TCR7; LOO_TCR24; LOO_TCR37

The test system of another assay is TCR28. Nature of the assay: I-Ag7 SABR-II library screen, enrichment score. The class given is cell-based, mouse. To be noted: TCR_Mean minus PREDICTED_TCR (slope 0.899229, intercept 2.47291e-5 on LIB_Mean), TCR 28, run PZ57. Put shortly: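 Read-out is Illumina read counts of SABR […] from sorted reporter cells (top 1–2% GFP⁺CD69⁺) after TCR⁺ Jurkat co-incubation with the I-Ag7 islet-epitope SABR-II library. Per-TCR scoring compares these counts with expected abundance derived from unsorted-library sequencing.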

As for AAVEEGIVAGGGVTLL, in assay [1], the “INDIVIDUAL ES LOO_TCR1” value was -4.978e-5, the “INDIVIDUAL ES LOO_TCR2” value is reported as -3.795e-6, the “INDIVIDUAL ES LOO_TCR3” value was determined as 1.5842e-5 and the “INDIVIDUAL ES LOO_TCR5” value is listed as 3.701e-5. For the same sequence, in assay [1], the “INDIVIDUAL ES LOO_TCR7” value was determined as 1.545e-5, the “INDIVIDUAL ES LOO_TCR24” value is -1.25e-6 and the “INDIVIDUAL ES LOO_TCR37” value is listed as -5.451e-6. Further, in the assay with TCR28, the “Enrichment score” value was -8.055e-6.

For AEKVRNLPAGHGLNAQ, in assay [1], the “INDIVIDUAL ES LOO_TCR1” value was determined as 5.319e-5, the “INDIVIDUAL ES LOO_TCR2” value was -0.0001199, the “INDIVIDUAL ES LOO_TCR3” value is reported as -3.193e-5 and the “INDIVIDUAL ES LOO_TCR5” value is listed as 1.335e-5. In assay [1], the “INDIVIDUAL ES LOO_TCR7” value was -1.1271e-5, the “INDIVIDUAL ES LOO_TCR24” value is reported as -8.015e-5 and the “INDIVIDUAL ES LOO_TCR37” value is reported as -1.6913e-5. Besides, in the assay with TCR28, the “Enrichment score” value is given as 9.652e-5.

On to AGGVAVIKAGAATEV, for which, in assay [1], the “INDIVIDUAL ES LOO_TCR1” value was 2.749e-5, the “INDIVIDUAL ES LOO_TCR2” value turned out to be 9.403e-5, the “INDIVIDUAL ES LOO_TCR3” value is reported as -4.985e-5 and the “INDIVIDUAL ES LOO_TCR5” value was found to be 2.576e-5. For the same sequence, in assay [1], the “INDIVIDUAL ES LOO_TCR7” value is given as 3.872e-6, the “INDIVIDUAL ES LOO_TCR24” value is reported as -1.653e-5 and the “INDIVIDUAL ES LOO_TCR37” value is reported as 5.688e-5. In addition, in the assay on TCR28, the “Enrichment score” value was 5.039e-6.

For the sequence AKAAVEEGIVAGGGV, in assay [1], the “INDIVIDUAL ES LOO_TCR1” value is recorded as -3.982e-5, the “INDIVIDUAL ES LOO_TCR2” value is reported as -3.046e-5, the “INDIVIDUAL ES LOO_TCR3” value was -2.304e-5 and the “INDIVIDUAL ES LOO_TCR5” value is -3.485e-6. In addition, in assay [1], the “INDIVIDUAL ES LOO_TCR7” value was 9.492e-5, the “INDIVIDUAL ES LOO_TCR24” value is 4.6789e-5 and the “INDIVIDUAL ES LOO_TCR37” value was 6.867e-6. Further, the “Enrichment score” value with TCR28 is 0.000168.

As to ALVREGLRNVAAGANP, in assay [1], the “INDIVIDUAL ES LOO_TCR1” value is given as -1.224e-5, the “INDIVIDUAL ES LOO_TCR2” value was -1.224e-5, the “INDIVIDUAL ES LOO_TCR3” value is -1.224e-5 and the “INDIVIDUAL ES LOO_TCR5” value is on record as -1.224e-5. For the same sequence, in assay [1], the “INDIVIDUAL ES LOO_TCR7” value is -1.224e-5, the “INDIVIDUAL ES LOO_TCR24” value is on record as -1.224e-5 and the “INDIVIDUAL ES LOO_TCR37” value is reported as -1.224e-5. Moreover, the “Enrichment score” value with TCR28 is given as -1.908e-5.
